Results from the NIST ThermoML archive (doi:10.1021/acs.jced.7b01006).

Experiment: xn = mol fraction of the nth substance listed
Conditions: 100 kPa, Liquid; for electrical conductivity: Alternating current cell with electrodes; for viscosity: Falling or rolling sphere viscometry; for mass density: Vibrating tube method

CCCCn1cc[n+](C)c1C.N#C[S-] [1-butyl-2,3-dimethylimidazolium thiocyanate] + CC#N
Conditions	electrical conductivity [S/m]	mass density [kg/m3]	viscosity [mPa·s]
288.15 K, x1 = 0.1001	4.72	888.99	16.94
288.15 K, x1 = 0.2004	4.01	951.31	38.93
288.15 K, x1 = 0.2999	3.35	995.07	67.12
288.15 K, x1 = 0.4003	1.19	1026.63	102.7
288.15 K, x1 = 0.5001	0.765	1038.63	145.4
288.15 K, x1 = 0.5999	0.599	1050.73	193.9
288.15 K, x1 = 0.6999	0.429	1062.95	249.1
288.15 K, x1 = 0.8002	0.358	1068.26	310.4
288.15 K, x1 = 0.9002	0.24	1075.99	377.8
288.15 K, x1 = 1	0.106	1084.2	452.7
293.15 K, x1 = 0.1001	5.01	885.19	11.74
293.15 K, x1 = 0.2004	4.34	948.02	27.08
293.15 K, x1 = 0.2999	3.71	991.9	46.77
293.15 K, x1 = 0.4003	1.45	1024	71.58
293.15 K, x1 = 0.5001	0.919	1036.16	100.9
293.15 K, x1 = 0.5999	0.728	1048.16	134.8
293.15 K, x1 = 0.6999	0.531	1060.42	172.9
293.15 K, x1 = 0.8002	0.458	1066.14	214.7
293.15 K, x1 = 0.9002	0.316	1073.56	260.4
293.15 K, x1 = 1	0.153	1081.11	311.3
298.15 K, x1 = 0.1001	5.31	881.36	8.229
298.15 K, x1 = 0.2004	4.69	944.6	18.85
298.15 K, x1 = 0.2999	4.05	988.57	32.07
298.15 K, x1 = 0.4003	1.71	1021.27	49.45
298.15 K, x1 = 0.5001	1.12	1033.49	69.9
298.15 K, x1 = 0.5999	0.891	1045.66	93.7
298.15 K, x1 = 0.6999	0.654	1057.9	119.9
298.15 K, x1 = 0.8002	0.57	1063.84	148.9
298.15 K, x1 = 0.9002	0.39	1071.37	181
298.15 K, x1 = 1	0.217	1078.2	218
303.15 K, x1 = 0.1001	5.61	877.5	5.854
303.15 K, x1 = 0.2004	5.03	941.34	12.95
303.15 K, x1 = 0.2999	4.42	985.32	22.58
303.15 K, x1 = 0.4003	2.01	1018.59	34.51
303.15 K, x1 = 0.5001	1.32	1030.79	49.24
303.15 K, x1 = 0.5999	1.06	1043.17	66.62
303.15 K, x1 = 0.6999	0.795	1055.17	85.89
303.15 K, x1 = 0.8002	0.697	1061.75	106.9
303.15 K, x1 = 0.9002	0.497	1068.94	130.3
303.15 K, x1 = 1	0.293	1075.18	157.9
308.15 K, x1 = 0.1001	5.92	873.64	4.393
308.15 K, x1 = 0.2004	5.36	938.14	9.306
308.15 K, x1 = 0.2999	4.79	982.11	16.16
308.15 K, x1 = 0.4003	2.34	1015.92	24.59
308.15 K, x1 = 0.5001	1.56	1028.06	34.95
308.15 K, x1 = 0.5999	1.26	1040.79	47.89
308.15 K, x1 = 0.6999	0.96	1052.69	62.82
308.15 K, x1 = 0.8002	0.853	1059.56	78.98
308.15 K, x1 = 0.9002	0.61	1066.57	97.33
308.15 K, x1 = 1	0.386	1072.16	118.9
313.15 K, x1 = 0.1001	6.23	869.75	3.257
313.15 K, x1 = 0.2004	5.7	934.72	6.633
313.15 K, x1 = 0.2999	5.15	978.72	11.34
313.15 K, x1 = 0.4003	2.67	1013.21	17.39
313.15 K, x1 = 0.5001	1.81	1025.43	25.45
313.15 K, x1 = 0.5999	1.48	1038.3	35.42
313.15 K, x1 = 0.6999	1.16	1050.1	46.81
313.15 K, x1 = 0.8002	1.03	1057.26	59.49
313.15 K, x1 = 0.9002	0.749	1064.3	73.79
313.15 K, x1 = 1	0.496	1069.15	90.46
318.15 K, x1 = 0.1001	6.53	865.95	2.458
318.15 K, x1 = 0.2004	6.03	931.41	4.722
318.15 K, x1 = 0.2999	5.52	975.35	8.162
318.15 K, x1 = 0.4003	3.03	1010.57	12.95
318.15 K, x1 = 0.5001	2.07	1022.69	18.62
318.15 K, x1 = 0.5999	1.73	1035.83	26.33
318.15 K, x1 = 0.6999	1.38	1047.6	35.55
318.15 K, x1 = 0.8002	1.23	1055.02	46.09
318.15 K, x1 = 0.9002	0.913	1061.87	57.94
318.15 K, x1 = 1	0.627	1066.16	72.04
323.15 K, x1 = 0.1001	6.83	862.09	1.882
323.15 K, x1 = 0.2004	6.37	927.98	3.578
323.15 K, x1 = 0.2999	5.89	972.17	5.904
323.15 K, x1 = 0.4003	3.4	1007.9	9.491
323.15 K, x1 = 0.5001	2.37	1020.14	13.67
323.15 K, x1 = 0.5999	2.01	1033.37	19.96
323.15 K, x1 = 0.6999	1.63	1045.21	27.68
323.15 K, x1 = 0.8002	1.46	1052.82	36.89
323.15 K, x1 = 0.9002	1.1	1059.62	46.83
323.15 K, x1 = 1	0.774	1063.2	57.11
